Several values for one entry are separate records, joined by “and”; a condition that tells them apart may be missing. Identical values can stand only once. Blank lines part the entries; values can stand above or below the molecule they belong to.
Columns and labels:
Experiment in all cases: Caliper, Mobility shift assay off-chip
PAK7 (human) = PAK7 (human) (UniProt Q9P286)
AURKA (human) = AURKA (human) (UniProt O14965)
SPHK1 (human) = SPHK1 (human) (UniProt Q9NYA1)
MYLK2 (human) = MYLK2 (human) (UniProt Q9H1R3)
CAMK2G (human) = CAMK2G (human) (UniProt Q13555)
STK10 (human) = STK10 (human) (UniProt O94804)
PRKCA (human) = PRKCA (human) (UniProt P17252)
AXL (human) = AXL (human) (UniProt P30530)
PRKCG (human) = PRKCG (human) (UniProt P05129)
PTK2 (human) = PTK2 (human) (UniProt Q05397)
MKNK2 (human) = MKNK2 (human) (UniProt Q9HBH9)
GSK3B (human) = GSK3B (human) (UniProt P49841)
MAP4K4 (human) = MAP4K4 (human) (UniProt O95819)
CIT (human) = CIT (human) (UniProt O14578)
PLK3 (human) = PLK3 (human) (UniProt Q9H4B4)
GSG2 (human) = GSG2 (human) (UniProt Q8TF76)
DYRK1B (human) = DYRK1B (human) (UniProt Q9Y463)
CSNK1A1 (human) = CSNK1A1 (human) (UniProt P48729)
WNK2 (human) = WNK2 (human) (UniProt Q9Y3S1)
FGR (human) = FGR (human) (UniProt P09769)
FGFR4 (human) = FGFR4 (human) (UniProt P22455)
PRKX (human) = PRKX (human) (UniProt P51817)
PRKACA (human) = PRKACA (human) (UniProt P17612)
PDK4 (human) = PDK4 (human) (UniProt Q16654)
MINK1 (human) = MINK1 (human) (UniProt Q8N4C8)
EPHB1 (human) = EPHB1 (human) (UniProt P54762)
MAPK10 (human) = MAPK10 (human) (UniProt P53779)
FGFR3 (human) = FGFR3 (human) (UniProt P22607)
MAPK3 (human) = MAPK3 (human) (UniProt P27361)
MAPK13 (human) = MAPK13 (human) (UniProt O15264)
CDK7 (human) = CDK7 (human) (UniProt P50613)
ITK (human) = ITK (human) (UniProt Q08881)
LYN (human) = LYN (human) (UniProt P07948)
MAPK12 (human) = MAPK12 (human) (UniProt P53778)
RPS6KB1 (human) = RPS6KB1 (human) (UniProt P23443)

PDK4 (human), sequence (Q16654 whole entry, looked up): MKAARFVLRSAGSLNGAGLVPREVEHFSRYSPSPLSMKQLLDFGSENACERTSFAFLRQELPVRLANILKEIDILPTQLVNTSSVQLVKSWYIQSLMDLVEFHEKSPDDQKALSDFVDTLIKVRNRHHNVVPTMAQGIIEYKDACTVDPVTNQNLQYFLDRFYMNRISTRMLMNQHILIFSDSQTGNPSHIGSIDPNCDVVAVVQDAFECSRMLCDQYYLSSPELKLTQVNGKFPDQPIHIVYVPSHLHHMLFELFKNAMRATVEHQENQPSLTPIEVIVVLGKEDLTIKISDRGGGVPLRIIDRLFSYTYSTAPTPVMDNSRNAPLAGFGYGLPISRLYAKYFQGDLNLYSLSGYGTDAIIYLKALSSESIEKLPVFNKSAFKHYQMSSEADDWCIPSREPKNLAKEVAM
MKNK2 (human), sequence (Q9HBH9 whole entry, looked up): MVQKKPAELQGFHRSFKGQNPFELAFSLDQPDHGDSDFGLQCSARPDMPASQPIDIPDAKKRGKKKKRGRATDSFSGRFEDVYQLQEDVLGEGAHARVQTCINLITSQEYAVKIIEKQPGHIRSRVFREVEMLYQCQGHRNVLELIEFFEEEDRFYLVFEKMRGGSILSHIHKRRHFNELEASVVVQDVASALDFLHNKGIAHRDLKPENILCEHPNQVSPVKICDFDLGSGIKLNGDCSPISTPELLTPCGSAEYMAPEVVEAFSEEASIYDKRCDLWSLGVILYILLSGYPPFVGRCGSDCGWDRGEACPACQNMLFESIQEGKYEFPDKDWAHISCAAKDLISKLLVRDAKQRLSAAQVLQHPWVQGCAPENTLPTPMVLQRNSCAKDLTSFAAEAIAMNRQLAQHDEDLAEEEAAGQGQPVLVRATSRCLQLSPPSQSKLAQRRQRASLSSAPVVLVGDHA
ITK (human), sequence (Q08881 whole entry, looked up): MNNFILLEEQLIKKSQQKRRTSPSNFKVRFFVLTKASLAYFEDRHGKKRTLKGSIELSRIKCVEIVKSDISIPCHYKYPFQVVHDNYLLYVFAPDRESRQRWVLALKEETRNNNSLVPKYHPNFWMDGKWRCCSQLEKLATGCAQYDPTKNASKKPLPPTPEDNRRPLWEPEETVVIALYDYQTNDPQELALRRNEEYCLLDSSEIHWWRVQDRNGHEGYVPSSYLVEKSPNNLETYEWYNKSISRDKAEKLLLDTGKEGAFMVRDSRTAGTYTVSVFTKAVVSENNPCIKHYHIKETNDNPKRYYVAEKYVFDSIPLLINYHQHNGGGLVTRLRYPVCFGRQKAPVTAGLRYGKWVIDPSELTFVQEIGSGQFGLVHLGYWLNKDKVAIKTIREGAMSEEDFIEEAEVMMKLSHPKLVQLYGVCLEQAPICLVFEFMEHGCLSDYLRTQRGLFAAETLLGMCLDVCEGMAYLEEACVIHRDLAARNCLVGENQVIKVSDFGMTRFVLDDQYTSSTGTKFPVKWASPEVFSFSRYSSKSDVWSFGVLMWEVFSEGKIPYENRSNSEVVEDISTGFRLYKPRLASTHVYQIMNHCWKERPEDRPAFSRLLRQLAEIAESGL
PTK2 (human), sequence (Q05397 whole entry, looked up): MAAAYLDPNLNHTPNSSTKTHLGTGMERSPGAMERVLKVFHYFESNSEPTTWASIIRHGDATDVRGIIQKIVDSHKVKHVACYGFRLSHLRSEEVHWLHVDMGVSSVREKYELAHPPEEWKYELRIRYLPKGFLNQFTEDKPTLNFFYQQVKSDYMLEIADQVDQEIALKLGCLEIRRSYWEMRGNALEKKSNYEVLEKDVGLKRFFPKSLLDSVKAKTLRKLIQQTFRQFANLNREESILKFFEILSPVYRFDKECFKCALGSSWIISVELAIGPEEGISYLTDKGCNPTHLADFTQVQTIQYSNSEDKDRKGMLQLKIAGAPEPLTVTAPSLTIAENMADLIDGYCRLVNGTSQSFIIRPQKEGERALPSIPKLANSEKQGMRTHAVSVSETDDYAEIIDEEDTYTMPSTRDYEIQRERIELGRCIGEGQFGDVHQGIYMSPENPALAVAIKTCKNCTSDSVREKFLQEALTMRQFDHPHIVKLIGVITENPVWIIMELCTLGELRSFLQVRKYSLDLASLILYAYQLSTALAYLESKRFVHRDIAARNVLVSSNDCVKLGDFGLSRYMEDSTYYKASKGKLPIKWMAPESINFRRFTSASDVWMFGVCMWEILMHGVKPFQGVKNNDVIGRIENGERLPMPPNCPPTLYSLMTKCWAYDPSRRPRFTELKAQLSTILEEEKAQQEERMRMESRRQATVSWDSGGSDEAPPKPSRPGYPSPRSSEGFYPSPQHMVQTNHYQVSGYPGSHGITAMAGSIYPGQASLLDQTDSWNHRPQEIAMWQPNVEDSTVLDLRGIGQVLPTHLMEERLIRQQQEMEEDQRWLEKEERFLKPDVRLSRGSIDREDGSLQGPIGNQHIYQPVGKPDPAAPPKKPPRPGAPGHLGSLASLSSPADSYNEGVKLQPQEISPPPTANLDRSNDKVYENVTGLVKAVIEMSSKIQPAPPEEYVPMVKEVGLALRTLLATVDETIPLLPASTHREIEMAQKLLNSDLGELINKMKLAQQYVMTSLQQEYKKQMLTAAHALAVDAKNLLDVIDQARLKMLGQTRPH
MAPK10 (human), sequence (P53779 whole entry, looked up): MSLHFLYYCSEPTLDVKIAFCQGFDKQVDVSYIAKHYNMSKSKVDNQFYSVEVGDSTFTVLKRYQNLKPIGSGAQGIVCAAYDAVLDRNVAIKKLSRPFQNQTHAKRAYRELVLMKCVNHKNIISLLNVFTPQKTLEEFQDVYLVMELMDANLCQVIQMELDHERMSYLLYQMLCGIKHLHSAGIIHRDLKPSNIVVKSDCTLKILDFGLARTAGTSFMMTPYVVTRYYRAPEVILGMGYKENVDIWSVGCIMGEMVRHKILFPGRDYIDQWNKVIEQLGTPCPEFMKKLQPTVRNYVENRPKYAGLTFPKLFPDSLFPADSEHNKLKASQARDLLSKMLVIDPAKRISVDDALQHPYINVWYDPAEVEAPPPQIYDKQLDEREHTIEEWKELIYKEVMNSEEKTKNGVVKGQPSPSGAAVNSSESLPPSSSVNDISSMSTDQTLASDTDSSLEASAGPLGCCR
FGFR3 (human), sequence (P22607 whole entry, looked up): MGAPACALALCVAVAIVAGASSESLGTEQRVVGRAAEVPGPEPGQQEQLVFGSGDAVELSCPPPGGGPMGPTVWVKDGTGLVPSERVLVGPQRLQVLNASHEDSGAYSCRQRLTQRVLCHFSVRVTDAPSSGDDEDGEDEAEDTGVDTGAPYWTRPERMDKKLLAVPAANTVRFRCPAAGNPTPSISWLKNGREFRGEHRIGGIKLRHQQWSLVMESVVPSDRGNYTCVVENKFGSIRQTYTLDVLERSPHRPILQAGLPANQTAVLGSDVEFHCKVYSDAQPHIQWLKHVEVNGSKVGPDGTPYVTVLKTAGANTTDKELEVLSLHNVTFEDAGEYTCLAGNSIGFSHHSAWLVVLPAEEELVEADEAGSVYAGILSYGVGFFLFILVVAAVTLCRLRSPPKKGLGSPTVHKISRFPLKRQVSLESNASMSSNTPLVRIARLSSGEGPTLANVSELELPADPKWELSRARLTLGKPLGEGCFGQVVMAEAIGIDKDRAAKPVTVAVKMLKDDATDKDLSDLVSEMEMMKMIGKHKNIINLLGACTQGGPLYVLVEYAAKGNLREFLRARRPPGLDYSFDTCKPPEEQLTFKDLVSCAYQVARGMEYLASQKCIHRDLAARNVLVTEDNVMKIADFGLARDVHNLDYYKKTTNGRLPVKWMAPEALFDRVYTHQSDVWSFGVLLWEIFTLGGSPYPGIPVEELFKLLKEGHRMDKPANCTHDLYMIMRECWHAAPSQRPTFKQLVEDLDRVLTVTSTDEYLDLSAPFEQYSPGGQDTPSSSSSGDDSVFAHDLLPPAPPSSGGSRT
CSNK1A1 (human), sequence (P48729 whole entry, looked up): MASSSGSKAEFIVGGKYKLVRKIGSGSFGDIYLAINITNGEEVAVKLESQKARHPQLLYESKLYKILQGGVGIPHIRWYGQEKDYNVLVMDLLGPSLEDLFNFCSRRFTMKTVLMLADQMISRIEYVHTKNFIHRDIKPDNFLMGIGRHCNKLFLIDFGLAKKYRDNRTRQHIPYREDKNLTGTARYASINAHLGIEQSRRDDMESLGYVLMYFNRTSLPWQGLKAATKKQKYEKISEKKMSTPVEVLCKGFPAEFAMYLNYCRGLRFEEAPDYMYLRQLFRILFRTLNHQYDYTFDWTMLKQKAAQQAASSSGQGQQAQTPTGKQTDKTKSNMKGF
MAPK12 (human), sequence (P53778 whole entry, looked up): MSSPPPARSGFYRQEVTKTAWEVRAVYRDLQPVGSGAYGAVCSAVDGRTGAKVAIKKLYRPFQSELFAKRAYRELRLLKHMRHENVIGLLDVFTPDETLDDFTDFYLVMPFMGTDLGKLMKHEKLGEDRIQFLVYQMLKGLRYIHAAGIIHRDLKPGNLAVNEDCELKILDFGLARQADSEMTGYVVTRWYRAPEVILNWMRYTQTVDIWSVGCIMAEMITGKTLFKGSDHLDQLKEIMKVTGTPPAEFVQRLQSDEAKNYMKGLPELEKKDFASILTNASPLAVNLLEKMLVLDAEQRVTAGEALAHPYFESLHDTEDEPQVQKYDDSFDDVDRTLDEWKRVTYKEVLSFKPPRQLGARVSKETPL
GSK3B (human), sequence (P49841 whole entry, looked up): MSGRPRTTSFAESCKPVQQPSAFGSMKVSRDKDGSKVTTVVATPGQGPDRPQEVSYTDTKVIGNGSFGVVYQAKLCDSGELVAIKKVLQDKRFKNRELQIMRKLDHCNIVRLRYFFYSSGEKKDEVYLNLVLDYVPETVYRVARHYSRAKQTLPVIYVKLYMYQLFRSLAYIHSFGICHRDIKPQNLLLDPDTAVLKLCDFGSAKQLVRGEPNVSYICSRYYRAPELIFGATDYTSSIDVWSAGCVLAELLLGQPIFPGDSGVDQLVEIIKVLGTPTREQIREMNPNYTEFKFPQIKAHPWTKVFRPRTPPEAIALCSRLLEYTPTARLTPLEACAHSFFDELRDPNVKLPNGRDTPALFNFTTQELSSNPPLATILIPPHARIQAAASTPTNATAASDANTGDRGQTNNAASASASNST

inhibition (PAK7 (human); compound 0.02 µM): -2.5% | inhibition (PAK7 (human); compound 0.2 µM): -1.8% | inhibition (AURKA (human); compound 0.02 µM): -1.5% | inhibition (AURKA (human); compound 0.2 µM): 5.4% | inhibition (SPHK1 (human); compound 0.02 µM): -3.1% | inhibition (SPHK1 (human); compound 0.2 µM): 3.2% | inhibition (MYLK2 (human); compound 0.02 µM): -3.3% | inhibition (MYLK2 (human); compound 0.2 µM): -2.4% | inhibition (CAMK2G (human); compound 0.02 µM): -7% | inhibition (CAMK2G (human); compound 0.2 µM): 2% | inhibition (STK10 (human); compound 0.02 µM): 3.3% | inhibition (STK10 (human); compound 0.2 µM): 36.1% | inhibition (PRKCA (human); compound 0.02 µM): 1.2% | inhibition (PRKCA (human); compound 0.2 µM): 12.2% | inhibition (AXL (human); compound 0.02 µM): -7.4% | inhibition (AXL (human); compound 0.2 µM): 7.1% | inhibition (PRKCG (human); compound 0.02 µM): -2.1% | inhibition (PRKCG (human); compound 0.2 µM): 16.8% | inhibition (PTK2 (human); compound 0.02 µM): -4.6% | inhibition (PTK2 (human); compound 0.2 µM): -3.4% | inhibition (MKNK2 (human); compound 0.02 µM): 4.4% | inhibition (MKNK2 (human); compound 0.2 µM): 48.3% | inhibition (GSK3B (human); compound 0.02 µM): -6.7% | inhibition (GSK3B (human); compound 0.2 µM): 2.9% | inhibition (MAP4K4 (human); compound 0.02 µM): -4.1% | inhibition (MAP4K4 (human); compound 0.2 µM): 6% | inhibition (CIT (human); compound 0.02 µM): -4.9% | inhibition (CIT (human); compound 0.2 µM): -2.3% | inhibition (PLK3 (human); compound 0.02 µM): 4% | inhibition (PLK3 (human); compound 0.2 µM): 5.3% | inhibition (GSG2 (human); compound 0.02 µM): -3% | inhibition (GSG2 (human); compound 0.2 µM): -1.8% | inhibition (DYRK1B (human); compound 0.02 µM): -6.7% | inhibition (DYRK1B (human); compound 0.2 µM): 0.6% | inhibition (CSNK1A1 (human); compound 0.02 µM): -4.6% | inhibition (CSNK1A1 (human); compound 0.2 µM): -2.9% | inhibition (WNK2 (human); compound 0.02 µM): -8.6% | inhibition (WNK2 (human); compound 0.2 µM): 3.6% | inhibition (FGR (human); compound 0.02 µM): 1.6% | inhibition (FGR (human); compound 0.2 µM): 14.2% | inhibition (FGFR4 (human); compound 0.02 µM): -7.4% | inhibition (FGFR4 (human); compound 0.2 µM): 8.8% | inhibition (PRKX (human); compound 0.02 µM): -7% | inhibition (PRKX (human); compound 0.2 µM): 0.2% | inhibition (PRKACA (human); compound 0.02 µM): -4.7% | inhibition (PRKACA (human); compound 0.2 µM): 0.7% | inhibition (PDK4 (human); compound 0.02 µM): 1.9% | inhibition (PDK4 (human); compound 0.2 µM): 3.4% | inhibition (MINK1 (human); compound 0.02 µM): -3.3% | inhibition (MINK1 (human); compound 0.2 µM): 4.1% | inhibition (EPHB1 (human); compound 0.02 µM): -1.8% | inhibition (EPHB1 (human); compound 0.2 µM): 8.5% | inhibition (MAPK10 (human); compound 0.02 µM): -6.5% | inhibition (MAPK10 (human); compound 0.2 µM): -4.6% | inhibition (FGFR3 (human); compound 0.02 µM): 5.5% | inhibition (FGFR3 (human); compound 0.2 µM): 51.7% | inhibition (MAPK3 (human); compound 0.02 µM): -2.3% | inhibition (MAPK3 (human); compound 0.2 µM): -0.7% | inhibition (MAPK13 (human); compound 0.02 µM): -3.5% | inhibition (MAPK13 (human); compound 0.2 µM): -0.7% | inhibition (CDK7 (human); compound 0.02 µM): -5.5% | inhibition (CDK7 (human); compound 0.2 µM): -7% | inhibition (ITK (human); compound 0.02 µM): -2.9% | inhibition (ITK (human); compound 0.2 µM): 7.5% | inhibition (LYN (human); compound 0.02 µM): -5% and -0.3% | inhibition (LYN (human); compound 0.2 µM): 35.2% and 36.9% | inhibition (MAPK12 (human); compound 0.02 µM): -5.9% | inhibition (MAPK12 (human); compound 0.2 µM): -0.3% | inhibition (RPS6KB1 (human); compound 0.02 µM): 8.1% | inhibition (RPS6KB1 (human); compound 0.2 µM): 48.1%
Compound: CNC(=O)c1cc(Oc2ccc(NC(=O)Nc3ccc(Cl)c(C(F)(F)F)c3)cc2)ccn1

inhibition (PAK7 (human); compound 0.02 µM): -5.8% | inhibition (PAK7 (human); compound 0.2 µM): 7.3% | inhibition (AURKA (human); compound 0.02 µM): 3.3% | inhibition (AURKA (human); compound 0.2 µM): 4.9% | inhibition (SPHK1 (human); compound 0.02 µM): -5.6% | inhibition (SPHK1 (human); compound 0.2 µM): -7.8% | inhibition (MYLK2 (human); compound 0.02 µM): -2.3% | inhibition (MYLK2 (human); compound 0.2 µM): -2.4% | inhibition (CAMK2G (human); compound 0.02 µM): 0.2% | inhibition (CAMK2G (human); compound 0.2 µM): 1.5% | inhibition (STK10 (human); compound 0.02 µM): 45.1% | inhibition (STK10 (human); compound 0.2 µM): 91.7% | inhibition (PRKCA (human); compound 0.02 µM): 10.1% | inhibition (PRKCA (human); compound 0.2 µM): 0.3% | inhibition (AXL (human); compound 0.02 µM): 6.9% | inhibition (AXL (human); compound 0.2 µM): 17.7% | inhibition (PRKCG (human); compound 0.02 µM): 3.8% | inhibition (PRKCG (human); compound 0.2 µM): 4.1% | inhibition (PTK2 (human); compound 0.02 µM): -5.3% | inhibition (PTK2 (human); compound 0.2 µM): -4.2% | inhibition (MKNK2 (human); compound 0.02 µM): -3.7% | inhibition (MKNK2 (human); compound 0.2 µM): 1.2% | inhibition (GSK3B (human); compound 0.02 µM): 0.7% | inhibition (GSK3B (human); compound 0.2 µM): 0.8% | inhibition (MAP4K4 (human); compound 0.02 µM): -0.2% | inhibition (MAP4K4 (human); compound 0.2 µM): 15.5% | inhibition (CIT (human); compound 0.02 µM): -3% | inhibition (CIT (human); compound 0.2 µM): -1.6% | inhibition (PLK3 (human); compound 0.02 µM): 6% | inhibition (PLK3 (human); compound 0.2 µM): 7.9% | inhibition (GSG2 (human); compound 0.02 µM): 0.4% | inhibition (GSG2 (human); compound 0.2 µM): -0.4% | inhibition (DYRK1B (human); compound 0.02 µM): 6.7% | inhibition (DYRK1B (human); compound 0.2 µM): -1.1% | inhibition (CSNK1A1 (human); compound 0.02 µM): -5.9% | inhibition (CSNK1A1 (human); compound 0.2 µM): -7.9% | inhibition (WNK2 (human); compound 0.02 µM): 3.8% | inhibition (WNK2 (human); compound 0.2 µM): 2.8% | inhibition (FGR (human); compound 0.02 µM): 12.6% | inhibition (FGR (human); compound 0.2 µM): 27.6% | inhibition (FGFR4 (human); compound 0.02 µM): 3.2% | inhibition (FGFR4 (human); compound 0.2 µM): 22.3% | inhibition (PRKX (human); compound 0.02 µM): 1.7% | inhibition (PRKX (human); compound 0.2 µM): -0.9% | inhibition (PRKACA (human); compound 0.02 µM): -2.9% | inhibition (PRKACA (human); compound 0.2 µM): -4.8% | inhibition (PDK4 (human); compound 0.02 µM): 2.7% | inhibition (PDK4 (human); compound 0.2 µM): 1.6% | inhibition (MINK1 (human); compound 0.02 µM): 3.5% | inhibition (MINK1 (human); compound 0.2 µM): 2.9% | inhibition (EPHB1 (human); compound 0.02 µM): -7.8% | inhibition (EPHB1 (human); compound 0.2 µM): -0.3% | inhibition (MAPK10 (human); compound 0.02 µM): -2.9% | inhibition (MAPK10 (human); compound 0.2 µM): -6.5% | inhibition (FGFR3 (human); compound 0.02 µM): 72.3% | inhibition (FGFR3 (human); compound 0.2 µM): 96.5% | inhibition (MAPK3 (human); compound 0.02 µM): -1.5% | inhibition (MAPK3 (human); compound 0.2 µM): -5% | inhibition (MAPK13 (human); compound 0.02 µM): -2.9% | inhibition (MAPK13 (human); compound 0.2 µM): -3.4% | inhibition (CDK7 (human); compound 0.02 µM): -5.4% | inhibition (CDK7 (human); compound 0.2 µM): -4.5% | inhibition (ITK (human); compound 0.02 µM): 6.7% | inhibition (ITK (human); compound 0.2 µM): 5.5% | inhibition (LYN (human); compound 0.02 µM): 13.8% and 15.6% | inhibition (LYN (human); compound 0.2 µM): 53.8% and 53.9% | inhibition (MAPK12 (human); compound 0.02 µM): -4.8% | inhibition (MAPK12 (human); compound 0.2 µM): -0.1% | inhibition (RPS6KB1 (human); compound 0.02 µM): 8.1% | inhibition (RPS6KB1 (human); compound 0.2 µM): 8.6%
Compound: COc1cc2c(Oc3ccc4[nH]c(C)cc4c3F)ncnc2cc1OCCCN1CCCC1
